Reference: US12320800B2, “High-throughput automation of organoids for identifying therapeutic strategies” (UNIVERSITY OF WASHINGTON, priority 2018, dated 2025)
In brackets after ≈: the same amount, converted by molar mass.

Key:
[1] = tested on: PKD organoids (mutations in polycystin-1); assay: Small-scale screen of PKD cystogenesis modifiers in 96-well organoid plates; type: cell-based, human; set-up: dose or concentration left out as unconfirmed; details: 7 days, blebbistatin at highest concentration
Experimental: (§1) Cyst generation. PKD1^−/− and PKD2^−/− hPSCs or isogenic controls were differentiated in microwell plates in adherent cultures. Forskolin (Sigma) was added to microwell plates during automated liquid handling on the 21st day after differentiation. Large swellings rapidly developed and grew to full size over 72 hours. Cysts were identified by comparing images with captured with high-content imaging prior to forskolin treatment, and after 72 hours. Screening of PKD cystogenesis was performed in duplicate in 96-well plates to provide sufficient space and numbers of organoids per well. Factors were plated at four different concentrations for seven days, and the organoids were scanned visually on a phase-contrast microscope for increased or decreased cyst formation. […] Cyst diameters were measured using NIS Elements imaging software (Nikon). […]

PKD organoids [2] = assay: Blebbistatin cystogenesis in suspension culture, PKD organoids; type: cell-based, human; set-up: time after which PKD organoids formed cysts: dose or concentration left out as unconfirmed
Experimental: Cyst generation. […] Forskolin (Sigma) was added to microwell plates during automated liquid handling on the 21st day after differentiation. Large swellings rapidly developed and grew to full size over 72 hours. Cysts were identified by comparing images with captured with high-content imaging prior to forskolin treatment, and after 72 hours. Screening of PKD cystogenesis was performed in duplicate in 96-well plates to provide sufficient space and numbers of organoids per well. Factors were plated at four different concentrations for seven days, and the organoids were scanned visually on a phase-contrast microscope for increased or decreased cyst formation. […] To test cystogenesis in suspension, adherent organoids were microdissected with a 23-gauge syringe needle from 24-well plates on an inverted phase-contrast microscope, and transferred into a low-adhesion 6-well plate (Corning) containing 2 mL RB or 2 mL RB with […] blebbistatin. Organoids were imaged daily on a Nikon Ti Inverted Widefield microscope for a period of 7 days. Cyst diameters were measured using NIS Elements imaging software (Nikon). Contiguous microscopic fields were collected using an automated stage and stitched together using NIS Elements software to generate large images of wells or plates.

[3] = tested on: control organoids of identical genetic background that lacked PKD mutations; assay: Blebbistatin cystogenesis in suspension culture, control organoids; type: cell-based, human; details: 3 days after treatment
Experimental: as §1, with “PKD1^−/− and PKD2^−/− hPSCs or isogenic controls were differentiated in microwell plates in adherent cultures.” left out

[4] = tested on: PKD1−/− and PKD2−/− mutant organoids; assay: Prophylactic effect of myosin activators on cyst formation in PKD organoids in suspension; type: cell-based, human
Text: Cyst formation. In adherent cultures (untreated), ‘cysts’ were identified as large, balloon-like, translucent structures that swayed in response to agitation. Flat rings and dilated tubules were not counted as cysts and occasionally appeared even in non-PKD controls. […] Wells were imaged using a Nikon TiE inverted wide-field microscope and cysts were quantified using ImageJ cell counter. To generate large cysts in suspension, adherent organoids were microdissected with a 23-gauge syringe needle from 24-well plates on an inverted phase-contrast microscope, and carefully transferred using a transfer pipette into a low-adhesion 6-well plate (Corning) containing 2 ml RB. The organoids were isolated on the twenty-first day of differentiation, before cysts formed. RB media was changed by gravity every three days, and cystogenesis was assessed at two weeks after replating.
EMD was efficient at rescuing cyst formation at the lowest dose tested (3 μM) and worked in both PKD1^−/− and PKD2^−/− mutant organoids.

late-stage PKD organoids = assay: Regression of pre-existing cysts in late-stage PKD organoids; type: cell-based, human; details: one week
Text: Reduction of pre-existing cysts would be a major advantage over tolvaptan. In an acute setting, EMD could be used to reduce pain from swollen cysts, and in a chronic setting it could potentially reverse the course of disease.

PKD organoids [5] = assay: Live-dead viability analysis of PKD organoids after EMD treatment; type: cell-based, human; details: 10 μM for two weeks
Experimental: To assess potential toxicity in human organoids, morphology was examined by phase-contrast microscopy during the treatment time course and performed a live-dead analysis of organoids at the endpoint of treatment (10 μM EMD for two weeks).

PKD1RC/RC mouse = assay: EMD pilot trial in PKD1RC/RC mouse; type: in vivo; details: for survival, distress and adverse effects: 5 mg/kg
Experimental: Efficacy In Vivo: To reproduce EMD's effects in an animal model, small pilot trial was performed in the PKD1RC/RC mouse. Animals at five months of age, a time point where cysts have already formed, were injected intraperitoneally with EMD four times over 2.5 weeks (FIG. 24A). EMD was dissolved in 400 μL PBS solution at 5 mg/kg (˜25 μM in mouse blood).
These animals were sacrificed and analyzed their kidney tissue.

myosin motor domain = details: allosteric pocket of the myosin motor domain; cited from earlier work
β-cardiac myosin = β-cardiac myosin (Homo sapiens, UniProt P12883); details: read-out: AC50, actomyosin ATPase activity; cited from earlier work
skeletal muscle myosin = details: read-out: AC50, actomyosin ATPase activity; cited from earlier work
non-cardiac myosin II = details: cited from earlier work
myosin = details: cited from earlier work; for effect: Table 5 listing
[6] = canines, orally administered, optimized for dissolution; cited from earlier work
liver cells = details: in vitro; cited from earlier work
[7] = cited from earlier work
cell stiffness = details: cited from earlier work
[8] = expected value, WT control or EMD, Aim 1
[9] = 5 mg/kg intraperitoneally, four times over 2.5 weeks
[10] = high dose (5 mg/kg) applied repeatedly

Sequence of β-cardiac myosin (P12883 whole entry): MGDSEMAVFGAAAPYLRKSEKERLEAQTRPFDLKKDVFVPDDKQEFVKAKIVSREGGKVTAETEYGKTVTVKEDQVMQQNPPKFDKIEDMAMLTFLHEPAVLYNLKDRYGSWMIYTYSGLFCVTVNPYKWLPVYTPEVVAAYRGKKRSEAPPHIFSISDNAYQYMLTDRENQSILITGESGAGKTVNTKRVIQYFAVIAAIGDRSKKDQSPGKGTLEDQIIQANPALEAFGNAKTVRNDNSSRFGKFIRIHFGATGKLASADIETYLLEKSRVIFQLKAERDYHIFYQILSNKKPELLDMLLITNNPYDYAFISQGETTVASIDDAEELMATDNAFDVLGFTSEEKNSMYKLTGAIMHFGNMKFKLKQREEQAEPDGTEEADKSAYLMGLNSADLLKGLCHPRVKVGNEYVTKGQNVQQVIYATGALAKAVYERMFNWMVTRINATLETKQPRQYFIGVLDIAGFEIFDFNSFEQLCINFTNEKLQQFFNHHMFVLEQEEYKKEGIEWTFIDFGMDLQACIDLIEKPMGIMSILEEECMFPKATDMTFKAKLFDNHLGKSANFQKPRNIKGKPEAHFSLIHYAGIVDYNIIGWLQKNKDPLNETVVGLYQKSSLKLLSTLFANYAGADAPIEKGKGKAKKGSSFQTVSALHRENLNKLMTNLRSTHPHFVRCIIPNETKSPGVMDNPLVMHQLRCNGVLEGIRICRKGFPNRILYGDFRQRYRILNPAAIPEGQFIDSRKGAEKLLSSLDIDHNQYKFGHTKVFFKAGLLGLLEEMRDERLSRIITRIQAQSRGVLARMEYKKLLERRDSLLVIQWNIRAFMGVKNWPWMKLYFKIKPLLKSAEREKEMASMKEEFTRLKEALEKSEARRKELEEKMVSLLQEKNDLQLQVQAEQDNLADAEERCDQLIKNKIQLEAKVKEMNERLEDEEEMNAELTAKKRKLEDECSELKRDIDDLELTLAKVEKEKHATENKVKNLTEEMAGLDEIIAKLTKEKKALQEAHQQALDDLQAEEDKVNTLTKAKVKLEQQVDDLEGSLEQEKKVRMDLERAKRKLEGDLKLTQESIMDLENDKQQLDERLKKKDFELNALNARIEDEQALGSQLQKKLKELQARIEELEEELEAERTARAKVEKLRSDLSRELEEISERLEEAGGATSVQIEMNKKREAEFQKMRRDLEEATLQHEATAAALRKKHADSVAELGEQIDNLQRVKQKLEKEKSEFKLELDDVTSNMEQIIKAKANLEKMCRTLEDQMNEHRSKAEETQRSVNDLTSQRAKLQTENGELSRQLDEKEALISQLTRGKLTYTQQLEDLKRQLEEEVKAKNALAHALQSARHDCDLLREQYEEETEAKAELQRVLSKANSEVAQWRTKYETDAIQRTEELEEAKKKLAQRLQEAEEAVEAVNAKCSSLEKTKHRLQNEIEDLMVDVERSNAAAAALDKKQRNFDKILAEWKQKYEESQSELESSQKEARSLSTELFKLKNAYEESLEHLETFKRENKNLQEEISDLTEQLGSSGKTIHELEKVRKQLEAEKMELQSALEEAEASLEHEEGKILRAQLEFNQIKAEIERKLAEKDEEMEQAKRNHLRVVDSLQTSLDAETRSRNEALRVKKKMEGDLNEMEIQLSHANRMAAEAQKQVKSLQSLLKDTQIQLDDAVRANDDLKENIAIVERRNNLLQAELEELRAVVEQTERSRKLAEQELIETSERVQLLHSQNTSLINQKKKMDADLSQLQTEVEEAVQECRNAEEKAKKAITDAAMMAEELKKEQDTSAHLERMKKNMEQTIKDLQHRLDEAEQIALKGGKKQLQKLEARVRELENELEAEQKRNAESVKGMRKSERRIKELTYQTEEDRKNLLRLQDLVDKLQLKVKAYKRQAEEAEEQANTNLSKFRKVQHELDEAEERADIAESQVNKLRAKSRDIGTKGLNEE
Sequence of β-cardiac myosin (P08590 whole entry partner): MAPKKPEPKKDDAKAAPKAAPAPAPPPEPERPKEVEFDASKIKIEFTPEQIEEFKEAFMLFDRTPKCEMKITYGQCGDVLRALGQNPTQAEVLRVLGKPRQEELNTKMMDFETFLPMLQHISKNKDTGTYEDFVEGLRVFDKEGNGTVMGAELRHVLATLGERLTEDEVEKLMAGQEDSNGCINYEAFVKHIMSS

## Cc1ccc2c(c1)C(=O)C1(O)CCN(c3ccccc3)C1=N2 (centres unmarked) [blebbistatin]
[1]
  change in cyst formation: significant increase in cyst formation
PKD organoids [2]; 7 days of treatment, suspension
  diameter and number of cysts: Both the diameter and number of cysts were increased
PKD organoids [2]; PKD organoids, suspension, 3 days after treatment
  increase in rate of cystogenesis: 40%
PKD organoids [2]; at this concentration and time frame
  damage to organoids: no damage to organoids was observed
PKD organoids [2]; suspension culture, blebbistatin
  time after which PKD organoids formed cysts: 24 h
PKD organoids [2]; washout after 7 days of treatment
  cyst size after removal of blebbistatin: cyst size declined
[3]
  increase in rate of cystogenesis: 10%

## COc1ccc(C(=O)N2CCCc3cc(C4=NNC(=O)SC4C)ccc32)cc1OC (single isomer, unassigned; (+)) [EMD, (+)-5-(1-(3,4-Dimethoxybenzoyl)-1,2,3,4-tetrahydroquinolin-6-yl)-6-methyl-3,6-dihydro-2H-1,3,4-thiadiazin-2-one]
[4]; PKD1−/− and PKD2−/− mutant organoids
  lowest dose tested, efficient at rescuing cyst formation: 3 µM
[4]; [8]
  Cyst diameter (mm): 0.12 ± 0.04 mm
  Cystic organoids (%): 15 ± 6%
[4]; pre-cystic organoids in suspension, versus untreated controls
  formation and size of resultant cysts: effectively reduced the formation and size of the resultant cysts
[4]; with blebbistatin
  efficacy on cysts in the presence of blebbistatin: effective even in the presence of blebbistatin
late-stage PKD organoids; late-stage PKD organoids (day 37), 5 μM
  size of pre-formed cysts: acute reduction in the size of pre-formed cysts
late-stage PKD organoids; late-stage PKD organoids
  toxicity at these doses: No overt toxicity
PKD organoids [5]
  toxicity (phase-contrast morphology and live-dead analysis): no significant toxicity
PKD1RC/RC mouse; [9]
  blood urea nitrogen levels (BUN): reduced
  kidney weight: reduced
PKD1RC/RC mouse; 5 mg/kg intraperitoneally, four times over 2.5 weeks, five months of age
  superficial (renal cortical) cysts by gross morphology: noticeably reduced superficial (renal cortical) cysts
PKD1RC/RC mouse; [8]
  BUN: 20 ± 5 mg/dL
  kidney weight: 0.30 ± 0.1 g
PKD1RC/RC mouse; expected value, WT control or EMD, Aim 2
  alpha-SMA+ area (%): 25 ± 4%
PKD1RC/RC mouse; [10]
  fibrosis in the kidneys: No fibrosis was observed
  survival, distress and adverse effects: no adverse effects or mortality
PKD1RC/RC mouse; mouse, in vivo
  survival, distress and adverse effects: all animals survived, and none showed any signs of distress
PKD1RC/RC mouse; treated kidneys
  acute tubular necrosis, proximal tubules (LTL+): no evidence of acute tubular necrosis
  cyst size in kidney sections: smaller cysts
  expression of smooth muscle alpha-actin: reduced expression
Myosin motor domain
  Kd: 7.3 µM
β-cardiac myosin
  AC50: 7 µM
Skeletal muscle myosin
  AC50: 15.1 µM
non-cardiac myosin II
  increase of non-cardiac myosin II activity: three-fold
myosin
  effect: ↑ myosin
[6]
  Tmax: ~2.5 h
  average Cmax: ~40 ng/mL
Liver cells
  metabolism by liver cells: metabolized by liver cells into demethylated and/or hydroxylated forms by CYP-dependent mechanisms
[7]
  aqueous solubility: 5 µg/mL (≈ 11.8 µM)

## CC(=O)c1ccc(O)cc1 [4-HAP, 4-hydroxyacetophenone]
[4]
  effect on PKD organoid cysts: less activity than EMD
[4]; 300 μM (FIG. 22)
  effect on cyst growth in PKD1−/− organoids: Positive effects
Cell stiffness
  concentration range showing effects on cell stiffness: 5 to 50 µM
myosin
  effect: ↑ myosin IIB, IIC
  myosin II paralogs affected: specifically affect non-muscle myosins IIB and IIC, but not IIA
